Reference: patent US6991780B2, “Aluminum-zirconium antiperspirant salts with low M:CI ratio” (The Gillette Company, priority 2000, dated 2006)
Values joined by “and” are separate entries in the source; they are usually repeats but may differ in a detail not shown here. Equal entries are not always repeated.

Assays:
[1] = test system: volunteer panelists (axilla); assay: standard hot room thermal efficacy (sweat reduction), test product on one axilla vs control on the other; type: in vivo, human; conditions: for antiperspirant efficacy compared with conventional enhanced antiperspirant salt (EAZCH): in words, from Table 2 data
Description: The above-described enhanced efficacy salt may be tested for thermal efficacy (i.e. hot room sweat reduction) using volunteer panelists in a standard hot room protocol. The test product (vehicle plus enhanced efficacy salt) is applied to one axilla and control product (vehicle only or vehicle plus standard efficacy antiperspirant salt) is applied to the other axilla. The above-described enhanced efficacy salt typically provides a sweat reduction of about 57–62% versus about 47–52% obtained with standard efficacy salt, when suspended as an 18–19% USP active in a liquid volatile silicone carrier vehicle. Also, a freshly prepared aqueous solution of the above-described enhanced efficacy salt (20% USP active) typically provides a sweat reduction of about 63–69% versus about 48–54% obtained with standard efficacy salt in aqueous solution at the same concentration.
The above-described high peak 5 enhanced efficacy salts of Example 1 are tested for thermal efficacy (i.e. hot room sweat reduction) using volunteer panelists in a standard hot room protocol. The test product is applied to one axilla and control product is applied to the other axilla in an AvB comparison. In all cases, the test product comprises vehicle (as described below) plus high peak 5 enhanced efficacy salt (E^5AZCH). The control product comprises vehicle plus conventional enhanced efficacy (high peak 4:3) antiperspirant salt (EAZCH), except where the vehicle is a clear gel formulation, in which case a standard efficacy salt (AZCH) is used because of the instability of the conventional enhanced salt in aqueous formulations. To counteract this instability, the formulation identified as “Aqueous” below, is freshly prepared with powdered EAZCH just prior to being tested. The results are reported as the average sweat reduction (“S.R.”) gain over the control (i.e. the absolute percentage point increase in sweat reduction over the control).

[2] = HPLC aluminum peak distribution after storage (stability of enhanced state); type: physicochemical; conditions: aqueous solution
Protocol: Throughout the specification reference to HPLC analysis means that chromatograms are obtained as follows: Salt solutions are evaluated for aluminum polymer distribution by HPLC at a concentration of about 10% (USP) Al—Zr salt. If the solution to be analyzed is at a higher salt concentration, it is diluted with sufficient water to bring the salt concentration to about 10%. A 1.0 μL sample is injected into a Waters U6K injector, then pumped through a 4.6 mm×500 mm column packed with Nucleosil 100-5 silica with pore size of 100 angstroms and particle size of 5 μm (Keystone Scientific Inc.) using a 0.01M aqueous nitric acid solution as the eluant. The flow rate of the mobile phase is controlled at 0.5 mL/min with an LDC/Milton Roy Constametric-II metering pump (ThermoQuest Inc.). HPLC profiles are recorded and processed with a computerized system that includes the Millennium 32 Chromatography Manager software from Waters Corp. A Waters 2410 differential refractometer is used as the refractive index detector. The HPLC profiles are read from left to right (higher to lower molecular weight). Following this technique, peak 3 typically appears at a retention time of about 11.0–12.0 minutes (Kd≅0.58–0.61), peak 4 typically appears at a retention time of about 11.9–12.9 minutes (Kd≅0.62–0.72), and peak 5 typically appears at a retention time of about 13.3–14.0 minutes (Kd≅0.83–0.91). […]

[3] = aqueous solution, 20% USP active (enhanced salt freshly prepared)
[4] = suspended as 18–19% USP active in liquid volatile silicone carrier vehicle

aluminum-zirconium chlorohydrate [salt A]
antiperspirant efficacy compared with conventional enhanced antiperspirant salt (EAZCH) ([1]; listed as A): more efficacious | Avg. S.R. Gain Over Control ([1]; vehicle Roll-On (20.0% AP active), control EAZCH, listed as A): 5.8 percentage point

aluminum-zirconium chlorohydrate [salt C]
retention of efficacy on storage ([1]; after storage of the clear gel at high temperature): maintains its high efficacy | antiperspirant efficacy compared with current commercial clear gel product (standard efficacy salt) ([1]; formulated as clear gel): substantially more efficacious | antiperspirant efficacy compared with conventional enhanced antiperspirant salt (EAZCH) ([1]; listed as C): more efficacious | Avg. S.R. Gain Over Control ([1]; vehicle Aqueous (20% USP AP active), control EAZCH freshly prepared, listed as C): 4.2 percentage point | Avg. S.R. Gain Over Control ([1]; vehicle Clear Gel (23.5% AP active), control AZCH): 15.9 percentage point | Avg. S.R. Gain Over Control ([1]; vehicle Clear Gel aged 3 months at 45° C., control AZCH): 13.3 percentage point

aluminum-zirconium chlorohydrate [salt D]
antiperspirant efficacy compared with conventional enhanced antiperspirant salt (EAZCH) ([1]; listed as D): more efficacious | Avg. S.R. Gain Over Control ([1]; vehicle Aqueous (20% USP AP active), control EAZCH freshly prepared, listed as D): 5.9 percentage point and 4.6 percentage point | Avg. S.R. Gain Over Control ([1]; vehicle Roll-On (20.0% AP active), control EAZCH, listed as D): 8.7 percentage point

aluminum-zirconium chlorohydrate [salt E]
antiperspirant efficacy compared with conventional enhanced antiperspirant salt (EAZCH) ([1]; listed as E): just as efficacious | Avg. S.R. Gain Over Control ([1]; vehicle Aqueous (20% USP AP active), control EAZCH freshly prepared, listed as E): 1.3 percentage point

aluminum-zirconium chlorohydrate [salt F]
antiperspirant efficacy compared with conventional enhanced antiperspirant salt (EAZCH) ([1]; listed as F): more efficacious | Avg. S.R. Gain Over Control ([1]; vehicle Aqueous (20% USP AP active), control EAZCH freshly prepared, listed as F): 4.5 percentage point | Avg. S.R. Gain Over Control ([1]; vehicle Solid (23.5% AP active), control EAZCH, listed as F): 4.0 percentage point

aluminum-zirconium chlorohydrate [salt G]
antiperspirant efficacy compared with conventional enhanced antiperspirant salt (EAZCH) ([1]; listed as G): just as efficacious | Avg. S.R. Gain Over Control ([1]; vehicle Solid (23.5% AP active), control EAZCH, listed as G): 2.1 percentage point

aluminum-zirconium chlorohydrate [salt H]
antiperspirant efficacy compared with conventional enhanced antiperspirant salt (EAZCH) ([1]; listed as H): just as efficacious | Avg. S.R. Gain Over Control ([1]; vehicle Aqueous (20% USP AP active), control EAZCH freshly prepared, listed as H): 0.3 percentage point

aluminum-zirconium chlorohydrate [salt J]
antiperspirant efficacy compared with conventional enhanced antiperspirant salt (EAZCH) ([1]; listed as J): more efficacious | Avg. S.R. Gain Over Control ([1]; vehicle Aqueous (20% USP AP active), control EAZCH freshly prepared, listed as J): 4.3 percentage point

aluminum-zirconium chlorohydrate [salt K]
antiperspirant efficacy compared with conventional enhanced antiperspirant salt (EAZCH) ([1]; listed as K): just as efficacious | Avg. S.R. Gain Over Control ([1]; vehicle Aqueous (20% USP AP active), control EAZCH freshly prepared, listed as K): 1.7 percentage point

aluminum-zirconium chlorohydrate-gly [AZCH, reference compound]
sweat reduction [1, 3]: 48–54% | sweat reduction [1, 4]: 47–52%

aluminum-zirconium octachlorohydrate-gly [salt B]
antiperspirant efficacy compared with conventional enhanced antiperspirant salt (EAZCH) [1]: more efficacious | retention of efficacy on storage ([1]; stored as concentrated aqueous solution for 1.5 years): retains its superior efficacy | Avg. S.R. Gain Over Control ([1]; vehicle Aqueous, aged 1.5 years, control EAZCH): 7.0 percentage point

aluminum-zirconium tetrachlorohydrate [EAZCH, reference compound]
stability of enhanced state (peak 4:3 ratio) in aqueous form [2]: peak 4:3 ratio deteriorates very quickly | sweat reduction [1, 3]: 63–69% | sweat reduction [1, 4]: 57–62%
